Source: ChEMBL document CHEMBL4266035, “Insulin Mimetic Activity of 3,4- Seco and Hexanordammarane Triterpenoids Isolated from Gynostemma longipes” (J Nat Prod, 2018)
The source made the active and inactive calls. The rule behind the calls is not given here.

How the values were obtained:
[1] = tested on: C2C12; assay: Cytotoxicity against mouse C2C12 cells at 40 uM after 24 hrs by MTT assay; format: cell-based; details: c2c12, 24 h
[2] = tested on: 3T3-L1; assay: Induction of 2-NBDG uptake in differentiated mouse 3T3L1 cells at 20 uM after 1 hr by fluorescence microscopic method; format: functional, cell-based
[3] = tested on: 3T3-L1; assay: Cytotoxicity against mouse 3T3L1 cells at 40 uM after 24 hrs by MTT assay; format: cell-based; details: 3t3-l1, 24 h
[4] = tested on: C2C12; assay: Induction of AMPKalpha phosphorylation at Thr-172 residue in mouse C2C12 cells at 20 uM after 1 hr by Western blot analysis; format: cell-based
[5] = species: Mus musculus; assay: Activation of AMPK signaling pathway in mouse 3T3L1 cells assessed as induction of GLUT4 translocation at 20 uM after 24 hrs by Western blot analysis; format: cell-based
[6] = tested on: 3T3-L1; assay: Induction of 2-NBDG uptake in differentiated mouse 3T3L1 cells after 1 hr by fluorescence microscopic method; format: functional, cell-based
[7] = tested on: C2C12; assay: Activation of AMPKalpha in mouse C2C12 cells assessed as upregulation of ACC-phosphorylation at 20 uM after 1 hr by Western blot analysis; format: cell-based
[8] = tested on: 3T3-L1; assay: Cytotoxicity against mouse 3T3L1 cells at 10 to 30 uM after 24 hrs by MTT assay; format: cell-based; details: 3t3-l1, 24 h
[9] = tested on: C2C12; assay: Induction of AMPKalpha phosphorylation at Thr-172 residue in mouse C2C12 cells at 10 uM after 1 hr by Western blot analysis; format: cell-based
[10] = tested on: C2C12; assay: Cytotoxicity against mouse C2C12 cells at 10 uM after 24 hrs by MTT assay; format: cell-based; details: c2c12, 24 h
[11] = tested on: 3T3-L1; assay: Induction of 2-NBDG uptake in differentiated mouse 3T3L1 cells at 10 uM after 1 hr by fluorescence microscopic method; format: functional, cell-based

SMILES	Activity [1]	Activity [2]	Activity [3]	Activity [4]	Activity [5]	Activity [6]	Activity [7]	Activity [8]	Activity [9]	Activity [10]	Activity [11]
C[C@@H]1O[C@@H](OC[C@H]2O[C@@H](O[C@H]3CC[C@]4(C)[C@H]5CC(=O)[C@@H]6[C@@H]([C@@](C)(O)CC(=O)CC(C)(C)O)CC[C@@]6(C)[C@]5(C)CC[C@H]4C3(C)C)[C@H](O[C@@H]3O[C@@H](C)[C@H](O)[C@@H](O)[C@H]3O)[C@@H](O[C@@H]3O[C@@H](C)[C@H](O)[C@@H](O)[C@H]3O)[C@H]2O)[C@H](O)[C@H](O)[C@H]1O	Non-Toxic	Active	Non-Toxic	inactive							
CC(=O)[C@H]1CC[C@]2(C)[C@@H]1C(=O)C[C@@H]1[C@@](C)(CCC(=O)O)[C@@H](C(C)(C)O)CC[C@]12C	Non-Toxic	Active	Non-Toxic	Active							
C[C@@H]1O[C@@H](O[C@H]2[C@H](O[C@H]3CC[C@]4(C)[C@H]5CC(=O)[C@@H]6[C@@H]([C@@](C)(O)C/C=C/C(C)(C)O)CC[C@@]6(C)[C@]5(C)CC[C@H]4C3(C)C)O[C@H](CO)[C@H](O)[C@@H]2O[C@@H]2O[C@@H](C)[C@H](O)[C@@H](O)[C@H]2O)[C@H](O)[C@H](O)[C@H]1O	Non-Toxic		Non-Toxic	Active	Active	Dose-dependent effect					
CC(C)=CC(=O)C[C@](C)(O)[C@H]1CC[C@]2(C)[C@@H]1C(=O)C[C@@H]1[C@@](C)(CCC(=O)O)[C@@H](C(C)(C)O)CC[C@]12C	Non-Toxic		Non-Toxic	Active	Active	Dose-dependent effect	Active				
CC(C)(O)CC(=O)C[C@](C)(O)[C@H]1CC[C@]2(C)[C@@H]1C(=O)C[C@@H]1[C@@](C)(CCC(=O)O)[C@@H](C(C)(C)O)CC[C@]12C	Non-Toxic		Non-Toxic	Active	Active	Dose-dependent effect	Active				
CC(C)=CC(=O)/C=C(/C)[C@H]1CC[C@]2(C)[C@@H]1C(=O)C[C@@H]1[C@@]3(C)CC[C@H](O[C@@H]4O[C@H](CO[C@@H]5O[C@@H](C)[C@H](O)[C@@H](O)[C@H]5O)[C@H](O)[C@H](O[C@@H]5O[C@@H](C)[C@H](O)[C@@H](O)[C@H]5O)[C@H]4O[C@@H]4O[C@@H](C)[C@H](O)[C@@H](O)[C@H]4O)C(C)(C)[C@@H]3CC[C@]12C	Non-Toxic	Active	Non-Toxic	inactive							
CC(C)=CCC[C@](C)(O)[C@H]1CC[C@]2(C)[C@@H]1C(=O)C[C@@H]1[C@@]3(C)CC[C@H](O[C@@H]4O[C@H](CO)[C@@H](O)[C@H](O)[C@H]4O[C@@H]4O[C@@H](C)[C@H](O)[C@@H](O)[C@H]4O)C(C)(C)[C@@H]3CC[C@]12C	Toxic		Toxic					Non-Toxic	Active	Non-Toxic	Active
CC(=O)[C@H]1CC[C@]2(C)[C@@H]1C(=O)C[C@@H]1[C@@]3(C)CC[C@H](O[C@@H]4O[C@H](CO[C@@H]5O[C@@H](C)[C@H](O)[C@@H](O)[C@H]5O)[C@H](O)[C@H](O[C@@H]5O[C@@H](C)[C@H](O)[C@@H](O)[C@H]5O)[C@H]4O[C@@H]4O[C@@H](C)[C@H](O)[C@@H](O)[C@H]4O)C(C)(C)[C@@H]3CC[C@]12C	Non-Toxic	Active	Non-Toxic	Active							
CC(=O)[C@H]1CC[C@]2(C)[C@@H]1C(=O)C[C@@H]1[C@@]3(C)CC[C@H](O[C@@H]4O[C@H](CO)[C@H](O)[C@H](O[C@@H]5O[C@@H](C)[C@H](O)[C@@H](O)[C@H]5O)[C@H]4O[C@@H]4O[C@@H](C)[C@H](O)[C@@H](O)[C@H]4O)C(C)(C)[C@@H]3CC[C@]12C	Non-Toxic		Non-Toxic	Active	Active	Dose-dependent effect	Active				
C[C@@H]1O[C@@H](OC[C@H]2O[C@@H](O[C@H]3CC[C@]4(C)[C@H]5CC(=O)[C@@H]6[C@@H]([C@@](C)(O)C/C=C/C(C)(C)O)CC[C@@]6(C)[C@]5(C)CC[C@H]4C3(C)C)[C@H](O[C@@H]3O[C@@H](C)[C@H](O)[C@@H](O)[C@H]3O)[C@@H](O[C@@H]3O[C@@H](C)[C@H](O)[C@@H](O)[C@H]3O)[C@H]2O)[C@H](O)[C@H](O)[C@H]1O	Non-Toxic	Active	Non-Toxic	inactive							
